{"source": "patent US20070191324A1", "about": "“Methods for treatment or prophylaxis of aldosterone-mediated pathogenic effects in a subject using an epoxy-steroidal aldosterone antagonist” (priority 1999, published 2007)", "key": {"[1]": {"tested_on": "captopril-treated saline-drinking SHRSP", "assay": "Angiotensin II-induced renal damage in captopril-treated saline-drinking SHRSP, Protocol 2 (Example A-8)", "type": "in vivo, rat (SHRSP/A3N)", "procedure": "Animals. Studies were conducted in accordance with institutional guidelines using male SHRSP/A3N (generations F-75 to F-78), n=37, from our local colony. These animals were bred from NIH stock, derived from the SHRSP/A3N substrain described originally by Okamoto and coworkers (Okamoto K et al. Circ. Res. 34 and 35 (suppl I):I-143-I-153.). All animals were housed in a room maintained on a 12:12-h light:dark-cycle and an ambient temperature of 22±1° C. in the Animal Care Facility at New York Medical College. Rats were weaned at 4 weeks of age and allowed free access to Purina Lab Chow 5001 (Ralston Purina, St. Louis, Mo.) and tap water until the initiation of experimental protocols.\nSHRSP were placed on Stroke-Prone Rodent Diet (#39-288, Zeigler Bros Inc., Gardners, Pa.) and 1% NaCl drinking solution ad libitum starting at 8.3 weeks of age. […] Animals were handled and weighed daily. Urine samples were collected for the assessment of proteinuria. Systolic blood pressure and heart rate were measured each week. After 2 weeks of treatment, animals were decapitated, trunk blood was collected into chilled EDTA tubes, and the kidneys were removed, blotted dry, and immediately weighed. Coronal sections of kidney were fixed and later processed for light microscopic evaluation.\nAssays and Analyses. Systolic blood pressure and heart rate of awake animals were measured by tail-cuff plethysmography using a Natsume KN-210 manometer and tachometer (Peninsula Laboratories Inc., Belmont, Calif.). Rats were warmed at 37° C. for 10 min and allowed to rest quietly in a Lucite chamber before measurement of blood pressure. Measurements of urine volume were made gravimetrically. Urinary protein concentration was determined by the sulfosalicylic acid turbidity method. Plasma aldosterone was measured by radioimmunoassay using ^125I-aldosterone as a tracer (Coat-a Count Aldosterone, Diagnostic Products Co., Los Angeles, Calif.).\nHistology. Kidneys were preserved in 10% phosphate-buffered formalin. Coronal sections (2-3 μm) were stained with hematoxylin and eosin and examined by light microscopy in a blinded fashion as previously described (Stier C T et al. J Pharmacol Exp Ther (1992) 260:1410-1415). Glomerular damage was categorized as ischemic or thrombotic. Ischemic lesions were defined as retraction of glomerular capillary tufts with or without appreciable mesangiolysis. Glomerular thrombotic lesions were defined as any one of a combination of the following: segmental to global fibrinoid necrosis, focal thrombosis of glomerular capillaries, swelling and proliferation of intracapillary (endothelial and mesangial) and/or extracapillary cells (crescents), and expansion of reticulated mesangial matrix with or without significant hypercellularity. […] Vascular thrombotic lesions were defined as any one or a combination of the following: mural fibrinoid necrosis, extravasation and fragmentation of red blood cells, and luminal and/or mural thrombosis. Proliferative arteriopathy was characterized by proliferation of markedly swollen myointimal cells with swollen round to ovoid vesicular nuclei surrounded by mucinous extracellular matrix (“onion skinning”) often resulting in nodular thickening. Vascular damage was expressed as the number of arteries and arterioles with lesions per 100 glomeruli. The presence of casts and tubular (ischemic) retraction and simplification was assessed semiquantitatively.\nStatistical Analysis. Significant effects with respect to treatment and time were determined by two-way analysis of variance. Data with only one grouping variable were analyzed statistically by Student's unpaired t tests. When more than two groups were compared, one-way analysis of variance was performed followed by the post-hoc Newman-Keul's multiple comparison test. Data were analyzed using version 2.01 of the GraphPad Prism statistical software package (GraphPad Software Inc., San Diego, Calif.). P<0.05 was considered statistically significant."}, "[2]": {"tested_on": "patients with low-renin hypertension", "assay": "Eplerenone versus losartan in low-renin hypertension, 16 weeks (Examples A-16, D-5)", "type": "in vivo, human", "text": "Patients will continue on therapy until Week 16. Table […] illustrates the above-described dosing scheme. […] Plasma renin will be determined at screening; serum aldosterone, plasma renin, and plasma cortisol will be determined at Weeks 0, 8, and 16. […] A 12-lead electrocardiogram will be done at Weeks 0 and 16. Physical examinations will be completed at screening and at Week 16. […] Secondary measures of efficacy will be the following: […] Study design is illustrated in FIG. D-16. […] At Weeks 8 and 16, BP, RAAS hormone profile, and safety were assessed."}, "[3]": {"tested_on": "black and white patients with mild-to-moderate hypertension", "conditions": "for Active Renin (% change) / ΔDBP / ΔSBP: baseline to Week 16"}, "[4]": {"conditions": "captopril 50 mg/kg/d, angiotensin II 25 ng/min, eplerenone 100 mg/kg/d, 2 weeks"}, "[5]": {"conditions": "Week 8 (monotherapy), EPL 100-200 mg QD, LOS 50-100 mg QD"}, "[6]": {"conditions": "Week 16, after allowed addition of HCTZ"}}, "note": "Read-outs that look alike come from different tables or passages of the source."}
{"molecule": "C[C@H](CS)C(=O)N1CCC[C@H]1C(=O)O", "note": "[Captopril]", "values": [{"measurement": "Glomerular damage, Total", "setting": "[1]; [4]", "result": "0 ± 0", "unit": "lesions/100 glomeruli"}, {"measurement": "Renal arteriopathy, Proliferative", "setting": "[1]; [4]", "result": "0 ± 0", "unit": "lesions/100 glomeruli"}, {"measurement": "Renal arteriopathy, Thrombotic", "setting": "[1]; [4]", "result": "0 ± 0", "unit": "lesions/100 glomeruli"}, {"measurement": "Renal arteriopathy, Total", "setting": "[1]; [4]", "result": "0 ± 0", "unit": "lesions/100 glomeruli"}, {"measurement": "plasma aldosterone concentration", "setting": "[1]; [4]", "result": "107 ± 26", "unit": "pg/mL"}, {"measurement": "tubules with ischemic retraction and simplification", "setting": "[1]; [4]", "result": "absent"}]}
{"molecule": "CCCCc1nc(Cl)c(CO)n1Cc1ccc(-c2ccccc2-c2nn[nH]n2)cc1", "note": "[Losartan, reference compound]", "values": [{"measurement": "cumulative percentage of patients requiring HCTZ add-on therapy", "setting": "[2]; 16 weeks", "result": 55.6, "unit": "%"}, {"measurement": "increase in active renin levels", "setting": "[2]; Week 8", "result": "+63.8%"}, {"measurement": "increase in serum aldosterone levels", "setting": "[2]; Week 8", "result": "−18.7", "unit": "%"}, {"measurement": "mean change from baseline in DBP", "setting": "[2]; [5]", "result": "−6.7", "unit": "mmHg"}, {"measurement": "mean change from baseline in SBP", "setting": "[2]; [5]", "result": "−10.1", "unit": "mmHg"}, {"measurement": "increase in active renin levels", "setting": "[2]; Week 16", "result": "+83.3%"}, {"measurement": "increase in serum aldosterone levels", "setting": "[2]; Week 16", "result": "−5.5", "unit": "%"}, {"measurement": "mean change from baseline in DBP", "setting": "[2]; [6]", "result": "−9.8", "unit": "mmHg"}, {"measurement": "mean change from baseline in SBP", "setting": "[2]; [6]", "result": "−15.0", "unit": "mmHg"}, {"measurement": "Active Renin (% change)", "setting": "[3]; All Patients", "result": "+67.1%"}, {"measurement": "ΔDBP", "setting": "[3]; All Patients", "result": "−6.9", "unit": "mmHg"}, {"measurement": "ΔSBP", "setting": "[3]; All Patients", "result": "−6.3", "unit": "mmHg"}, {"measurement": "Active Renin (% change)", "setting": "[3]; Black Patients", "result": "+40.0%"}, {"measurement": "ΔDBP", "setting": "[3]; Black Patients", "result": "−6.0", "unit": "mmHg"}, {"measurement": "ΔSBP", "setting": "[3]; Black Patients", "result": "−5.3", "unit": "mmHg"}, {"measurement": "adjusted mean percent change from baseline in UACR", "setting": "[3]; Week 16, EPL 50-200 mg QD, LOS 50-100 mg QD", "result": "−18.2", "unit": "%"}, {"measurement": "Active Renin (% change)", "setting": "[3]; White Patients", "result": "+113.7%"}, {"measurement": "ΔDBP", "setting": "[3]; White Patients", "result": "−8.4", "unit": "mmHg"}, {"measurement": "safety and tolerability", "setting": "[3]; human, in vivo", "result": "safe and well-tolerated"}]}
{"molecule": "Angiotensin II: Angiotensin II (human type) infused by osmotic minipump (DRVYIHPF; Angiotensin-2; UniProt P01019 25-32, looked up)", "values": [{"measurement": "Glomerular damage, Ischemic", "setting": "[1]; [4]", "result": "13 ± 3", "unit": "lesions/100 glomeruli"}, {"measurement": "Glomerular damage, Thrombotic", "setting": "[1]; [4]", "result": "2 ± 1", "unit": "lesions/100 glomeruli"}, {"measurement": "Glomerular damage, Total", "setting": "[1]; [4]", "result": "15 ± 3", "unit": "lesions/100 glomeruli"}, {"measurement": "Renal arteriopathy, Proliferative", "setting": "[1]; [4]", "result": "1 ± 1", "unit": "lesions/100 glomeruli"}, {"measurement": "Renal arteriopathy, Thrombotic", "setting": "[1]; [4]", "result": 15, "unit": "lesions/100 glomeruli"}, {"measurement": "Renal arteriopathy, Total", "setting": "[1]; [4]", "result": "16 ± 2", "unit": "lesions/100 glomeruli"}, {"measurement": "plasma aldosterone concentration", "setting": "[1]; [4]", "result": "404 ± 160", "unit": "pg/mL"}, {"measurement": "renal damage", "setting": "[1]; captopril + angiotensin II 25 ng/min, with eplerenone 100 mg/kg/d or vehicle", "result": "18±4", "unit": "%"}, {"measurement": "proteinuria (urinary protein excretion)", "setting": "[1]; end of study (2 weeks), captopril 50 mg/kg/d, angiotensin II 25 ng/min s.c., eplerenone 100 mg/kg/d by gavage", "result": "96 ± 13", "unit": "mg/day"}]}
